Columns and labels:
Plasma ACE1 = molecular target: T1, Plasma ACE1 (Mus musculus, UniProt P09470); test: SELDI-TOF-MS assay of ACE activity in plasma (Ang I substrate, Ang II product); assay type: biochemical; conditions: data not shown
T1 construct: Plasma ACE1 converted Ang I (Ang 1-10; 1296.5 m/z) to Ang II; from tissue; host or cells: mouse plasma (crude, 0.5 µl)
T1 sequence (P09470 35-1237 limits assumed): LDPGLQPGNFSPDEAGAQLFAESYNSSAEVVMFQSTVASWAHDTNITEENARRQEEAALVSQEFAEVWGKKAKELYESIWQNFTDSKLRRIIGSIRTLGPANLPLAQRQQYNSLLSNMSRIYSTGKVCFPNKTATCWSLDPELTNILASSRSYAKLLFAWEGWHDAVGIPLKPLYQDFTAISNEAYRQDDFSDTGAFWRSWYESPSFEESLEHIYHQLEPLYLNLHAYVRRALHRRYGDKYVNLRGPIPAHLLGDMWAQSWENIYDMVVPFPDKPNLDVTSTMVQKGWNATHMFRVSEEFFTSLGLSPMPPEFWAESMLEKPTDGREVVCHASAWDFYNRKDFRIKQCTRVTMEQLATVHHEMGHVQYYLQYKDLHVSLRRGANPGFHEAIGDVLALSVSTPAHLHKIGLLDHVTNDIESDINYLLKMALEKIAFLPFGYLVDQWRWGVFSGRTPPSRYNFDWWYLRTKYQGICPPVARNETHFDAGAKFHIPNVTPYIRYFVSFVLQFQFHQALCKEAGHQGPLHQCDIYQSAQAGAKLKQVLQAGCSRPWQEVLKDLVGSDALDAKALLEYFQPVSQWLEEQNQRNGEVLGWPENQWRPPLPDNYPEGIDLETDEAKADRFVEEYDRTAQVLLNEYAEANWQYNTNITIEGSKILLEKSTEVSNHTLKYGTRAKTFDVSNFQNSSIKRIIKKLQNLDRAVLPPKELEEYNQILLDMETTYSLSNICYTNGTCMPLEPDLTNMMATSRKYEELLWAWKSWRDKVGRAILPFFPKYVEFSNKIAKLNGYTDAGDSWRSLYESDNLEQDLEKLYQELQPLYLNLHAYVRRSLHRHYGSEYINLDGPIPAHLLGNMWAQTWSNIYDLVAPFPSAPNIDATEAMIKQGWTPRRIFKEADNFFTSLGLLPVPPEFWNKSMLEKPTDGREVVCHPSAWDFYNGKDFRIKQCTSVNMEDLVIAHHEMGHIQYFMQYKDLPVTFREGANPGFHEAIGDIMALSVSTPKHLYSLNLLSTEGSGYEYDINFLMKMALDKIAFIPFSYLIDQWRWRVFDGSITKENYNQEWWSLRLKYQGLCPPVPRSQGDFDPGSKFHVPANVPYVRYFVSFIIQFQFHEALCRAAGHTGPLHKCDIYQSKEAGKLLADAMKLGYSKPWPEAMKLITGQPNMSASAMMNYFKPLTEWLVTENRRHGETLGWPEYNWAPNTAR

renin = molecular target: T2, renin (Mus musculus, UniProt P06281); test: SELDI-TOF-MS assay of renin activity in plasma (AGT substrate; sequential renin and ACE1); assay type: biochemical; conditions: AGT + plasma + captopril (10 μM); FIG. 1F
T2 construct: Plasma incubated with AGT (1759, m/z) results in peptides with m/z that matched Ang 1 and Ang II; from tissue; host or cells: mouse plasma (crude, 0.5 µl)
T2 sequence (P06281 72-402): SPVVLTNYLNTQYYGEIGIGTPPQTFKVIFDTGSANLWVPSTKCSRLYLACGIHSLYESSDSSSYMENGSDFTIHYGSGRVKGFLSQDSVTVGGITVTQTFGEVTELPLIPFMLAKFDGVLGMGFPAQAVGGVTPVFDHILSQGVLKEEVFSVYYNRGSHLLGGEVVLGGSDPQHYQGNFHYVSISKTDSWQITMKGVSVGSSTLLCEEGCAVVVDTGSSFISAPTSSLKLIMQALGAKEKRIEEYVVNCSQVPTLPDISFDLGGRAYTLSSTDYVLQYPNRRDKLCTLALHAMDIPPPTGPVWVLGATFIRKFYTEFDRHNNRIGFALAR
Protocol: For measurement of enzyme activities, substrates (Ang II or AGT) were incubated with plasma or tissue extracts and the peptide products were measured using SELDI-TOF MS. For ACE activity, plasma (0.5-2.5 μl) or tissue extracts (1 μg protein) were incubated in 50 μl MES buffer (50 mM, pH 6.7) containing 2 mM PMSF and varying concentrations of Ang I(0.1-10 μM) at 37° C. One μl of the reaction mixture was spotted onto ProteinChip arrays and analyzed as previously described in Cool, D. R. & Hardiman, A., “C-Terminal sequencing of peptide hormones using carboxypeptidase Y and SELDI-TOF mass spectrometry” Biotechniques 36, 32-34 (2004), incorporated herein by reference. […]. […]

O=C(O)CN(CCN(CC(=O)O)CC(=O)O)CC(=O)O [EDTA]
ACE activity (conversion of Ang I to Ang II) (Plasma ACE1; 10 mM EDTA): blocked

C[C@H](CS)C(=O)N1CCC[C@H]1C(=O)O [captopril]
effect on renin activity (renin): no effect

c1cnc2c(c1)ccc1cccnc12 [1, 10 phenanthroline]
ACE activity (conversion of Ang I to Ang II) (Plasma ACE1; 0.44 mM 1, 10 phenanthroline): blocked

From patent US7332296B2, “Screening assay for enzymes involved in pathophysiology using SELDI-TOF mass spectrometry” (Wright State University, priority 2004, dated 2008)
